The record followed here is US20250052985A1, “SYSTEM AND METHOD FOR QUANTITATIVE PHASE IMAGING FOR MULTI-PARAMETRIC SCREENING OF TUMOR THERAPY RESPONSE” (UNIVERSITY OF UTAH RESEARCH FOUNDATION, priority 2023, published 2025).

What all share (format): cell-based
One test relates to HCI-038 PDxO cells. Nature of the test: QPI on cells from patient-derived organoid HCI-038 (bone metastasis). The conditions noted are these: HCI-038. As for the experimental part:
In some embodiments, the QPI microscope system 110 performs QPI on cells from patient-derived organoids and direct-from-patient samples. For example, the electronic controller 155 analyzes data on cells from a set of 5 organoids representing samples collected from two patients, as illustrated by a workflow 3400 in FIG. 24. The workflow 3400 is an experiment workflow illustrating how assays are analyzed by the QPI microscope system 110. In some embodiments, the QPI microscope system 110 images cells for 48 h, and uses an automatic segmentation algorithm, via the electronic controller 155, to identify individual cells from background, as shown in images 3405 and 3410 of FIG. 24. […] The electronic controller 155 determines the mass of each cell by summing the cell mass over the segmented area. In some embodiments, plots of mass over time reveal single cell growth rates, as shown by graph 3415 of FIG. 24. The graph 3415 is a mass vs. time plot showing DMSO treated cells growing cells at a typical location. Cells outlined in green are shown as green on the plot, other growing cells are shown in purple. […] In some embodiments, EC50 measured by the QPI microscope system 110 is strongly concordant with gold standard techniques such as CTG over 27 conditions (e.g., 9 compounds, 3 breast cancer cell lines). […]

The subject of a further test is HCI-039 PDxO cells. The test is described as follows: QPI on cells from patient-derived organoid HCI-039 (pleural effusion). The conditions noted are these: HCI-039. Here is the method:
In some embodiments, the QPI microscope system 110 performs QPI on cells from patient-derived organoids and direct-from-patient samples. For example, the electronic controller 155 analyzes data on cells from a set of 5 organoids representing samples collected from two patients, as illustrated by a workflow 3400 in FIG. 24. The workflow 3400 is an experiment workflow illustrating how assays are analyzed by the QPI microscope system 110. In some embodiments, the QPI microscope system 110 images cells for 48 h, and uses an automatic segmentation algorithm, via the electronic controller 155, to identify individual cells from background, as shown in images 3405 and 3410 of FIG. 24. […] The electronic controller 155 determines the mass of each cell by summing the cell mass over the segmented area. In some embodiments, plots of mass over time reveal single cell growth rates, as shown by graph 3415 of FIG. 24. The graph 3415 is a mass vs. time plot showing DMSO treated cells growing cells at a typical location. Cells outlined in green are shown as green on the plot, other growing cells are shown in purple. The electronic controller 155 determine the specific growth rate (SGR) by fitting a line to time-series mass measurements and normalizing by an initial mass predicted by the fit to account for the effect of cell size on growth rate. The electronic controller 155 fits SGR as a function of dose to a sigmoidal dose response curve using a 3-parameter Hill model to extract dose response measurements, as shown by graph 3420 of FIG. 24. […] In some embodiments, EC50 measured by the QPI microscope system 110 is strongly concordant with gold standard techniques such as CTG over 27 conditions (e.g., 9 compounds, 3 breast cancer cell lines). […] As with cell line data, QPI data on cells from PDxO resolves differences in temporal dynamics of response to therapy, as shown in graph 3425 of FIG. 24. […] In some embodiments, the electronic controller 155 is configured to determine a drug response of each of the plurality of treatment samples from patient derived organoids. […]

The next test deals with HCI-037 PDxO cells. Nature of the test: QPI on cells from patient-derived organoid HCI-037 (primary lesion). As to conditions: HCI-037. As for the experimental part:
In some embodiments, the QPI microscope system 110 performs QPI on cells from patient-derived organoids and direct-from-patient samples. For example, the electronic controller 155 analyzes data on cells from a set of 5 organoids representing samples collected from two patients, as illustrated by a workflow 3400 in FIG. 24. The workflow 3400 is an experiment workflow illustrating how assays are analyzed by the QPI microscope system 110. In some embodiments, the QPI microscope system 110 images cells for 48 h, and uses an automatic segmentation algorithm, via the electronic controller 155, to identify individual cells from background, as shown in images 3405 and 3410 of FIG. 24. […] The electronic controller 155 determines the mass of each cell by summing the cell mass over the segmented area. In some embodiments, plots of mass over time reveal single cell growth rates, as shown by graph 3415 of FIG. 24. The graph 3415 is a mass vs. time plot showing DMSO treated cells growing cells at a typical location. Cells outlined in green are shown as green on the plot, other growing cells are shown in purple. The electronic controller 155 determine the specific growth rate (SGR) by fitting a line to time-series mass measurements and normalizing by an initial mass predicted by the fit to account for the effect of cell size on growth rate. The electronic controller 155 fits SGR as a function of dose to a sigmoidal dose response curve using a 3-parameter Hill model to extract dose response measurements, as shown by graph 3420 of FIG. 24. […] In some embodiments, EC50 measured by the QPI microscope system 110 is strongly concordant with gold standard techniques such as CTG over 27 conditions (e.g., 9 compounds, 3 breast cancer cell lines). […] As with cell line data, QPI data on cells from PDxO resolves differences in temporal dynamics of response to therapy, as shown in graph 3425 of FIG. 24. […] In some embodiments, the electronic controller 155 is configured to determine a drug response of each of the plurality of treatment samples from patient derived organoids.
The graphs 3500 includes graph A of the graphs 3500 showing normalized mass vs. time for HCI-037 (primary), HCI-038 (metastatic), and HCI-039 (pleural effusion) showing reduction in growth as concentration increases. Graphs B, C, D, and E of the graphs 3500 show dose response plots showing the differential response between different disease models. Graphs F, G, H, and I of the graphs 3500 show Hellinger distance vs. time plots showing the time of response for the different models treated with various therapies. In some embodiments, HCI-037, HCI-038, and HCI-039, PDxO models are used that are derived from primary lesion, bone metastasis, and pleural effusion, respectively, at different time points from a single patient during the course of treatment and progressive disease. In some embodiments, the electronic controller 155 is configured to determine a difference drug response from patient derived organoids. In some embodiments, the patient derived organoids are tumor organoids.

Take `CC[C@H](NC(=O)[C@H](C)NC)C(=O)N1C[C@@H](O)C[C@H]1Cc1c(-c2[nH]c3cc(F)ccc3c2C[C@@H]2C[C@H](O)CN2C(=O)[C@H](CC)NC(=O)[C@H](C)NC)[nH]c2cc(F)ccc12` [birinapant]: the response result in the test on HCI-038 PDxO cells was “no response”. Also, in the test on HCI-039 PDxO cells, the “EC50 compared with HCI-037” value is recorded as “similar” and the “time of response compared with HCI-037” value is given as “much faster time of response”. In the test with HCI-037 PDxO cells, the “EC50 compared with HCI-039” value is “similar” and the “depth of response compared with HCI-039” value is “much greater depth of response”.
